From patent publication US11040028B2, “Penicinotam derivative, preparation method and use thereof” (OCEAN UNIVERSITY OF CHINA, priority 2017, dated 2021)

Experiments:
Format in all cases: cell-based
BHK-21 cells = test: Anti-fibrosis activity test: inhibition of BHK-21 cell proliferation (CCK-8); settings: Mesocricetus auratus, BHK-21, 48 h
In short: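 Proliferation inhibition was read as CCK-8 absorbance at 450 nm (2-hour development) relative to untreated blank, with IC50 fitted from the curve. Before that, adhered cells (2×10^4 cells/mL, 24 hours) had 48 hours' treatment at several concentrations, in triplicate, at 37° C/5% CO2; pirfenidone was the reference.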

[1] = system: human lung fibroblasts HFL1; test: Anti-fibrosis activity test: inhibition of proliferation of human lung fibroblasts HFL1 (CCK-8); settings: Homo sapiens, HFL1, 48 h
In short: (§1)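 A CCK-8 proliferation assay was run: cells at 2×10^4 cells/mL, adherent for 24 h, then incubated 48 h at 37° C with compound dilutions. A450 was recorded 2 h after CCK-8 addition and converted to percent inhibition versus blank for IC50 determination.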

[2] = system: human hepatic stellate cells LX-2; test: Anti-fibrosis activity test: inhibition of proliferation of human hepatic stellate cells LX-2 (CCK-8); settings: Homo sapiens, 48 h
In short: as §1

[3] = system: human fibrosarcoma cells HT-1080; test: Anti-fibrosis activity test: inhibition of proliferation of human fibrosarcoma cells HT-1080 (CCK-8); settings: Homo sapiens, HT-1080, 48 h
In short: as §1

[4] = system: human dermal fibroblasts CCC-ESF-1; test: Anti-fibrosis activity test: inhibition of proliferation of human dermal fibroblasts CCC-ESF-1 (CCK-8); settings: Fibroblast
In short: as §1

[5] = system: human embryonic lung fibroblast IMR-90; test: Anti-fibrosis activity test: inhibition of proliferation of human embryonic lung fibroblast IMR-90 (CCK-8)
In short: as §1

[6] = system: cardiac fibroblast RAT-iCell-C002; test: Anti-fibrosis activity test: inhibition of proliferation of cardiac fibroblast RAT-iCell-C002 (CCK-8); settings: Cardiac fibroblast, 48 h
In short: as §1

NF-κB = test: Immunological activity test: inhibition of NF-κB activity; settings: initial concentration of 30 μM; a/b isomers given as first/second symbol; read-out: IC50 (μM), inhibitory activity against NF-κB
In short: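 Single-point testing at 30 μM preceded IC50 determination.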

[7] = system: mouse macrophages (RAW264.7); test: Lipopolysaccharide-induced NO secretion in macrophages (Griess); settings: Mus musculus, RAW264.7, 24 h, RAW264.7, LPS 1 μg/ml, a/b isomers given as first/second symbol, read-out: IC50 (μM), inhibition of lipopolysaccharide-induced NO secretion in macrophages
In short: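 Absorbance at 548 nm after Griess reagent addition to culture supernatant gave NO content; inhibition rate was derived relative to blank control. Cells were mouse RAW264.7 macrophages exposed to compounds and 1 μg/ml LPS for 24 hours.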

[8] = CCK-8, 48 hours after administration
[9] = human lung fibroblasts HFL1, CCK-8, 48 hours
[10] = human hepatic stellate cells LX-2, CCK-8, 48 hours
[11] = human fibrosarcoma cells HT-1080, CCK-8, 48 hours
[12] = human dermal fibroblasts CCC-ESF-1, CCK-8, 48 hours
[13] = human embryonic lung fibroblast IMR-90, CCK-8, 48 hours
[14] = cardiac fibroblast RAT-iCell-C002, CCK-8, 48 hours
[15] = Homo sapiens, CCC-ESF-1 cells, 48 h, CCK-8
[16] = Homo sapiens, IMR-90 cells, 48 h, CCK-8

Row | IC50 [3, 11] | IC50 (NF-κB) | IC50 [7] | IC50 ([3]; HT-1080 cells, 48 h, CCK-8) | Structure (SMILES) | IC50 (BHK-21 cells; [8]) | IC50 [1, 9] | IC50 [2, 10] | IC50 [4, 12] | IC50 [5, 13] | IC50 [6, 14] | IC50 (BHK-21 cells; 48 h, CCK-8) | IC50 ([1]; HFL1 cells, 48 h, CCK-8) | IC50 ([2]; LX-2, 48 h, LX-2 cells, CCK-8) | IC50 [4, 15] | IC50 [5, 16] | IC50 ([6]; RAT-iCell-C002 cells, CCK-8)
1 | 0.05 to 5 mM | 1 to 10 µM | 0.1 to 1 µM | – | O=C1c2c([nH]c3c(F)cccc3c2=O)-c2cccn21 [Compound 444a, 5-Fluoro-9H-pyrrolizino[1,2-b]quinoline-9,10(4H)-dione] | 0.05 to 5 mM | 0.05 to 5 mM | 0.05 to 5 mM | 0.05 to 5 mM | 0.05 to 5 mM | 0.05 to 5 mM | – | – | – | – | – | –
2 | 0.05 to 5 mM | 10 to 50 µM | 1 to 10 µM | – | O=C1c2c(nc3cccc(Cl)c3c2OCc2cccc(Cl)c2)-c2cccn21 [Compound 478b, 8-chloro-9-((3-chlorobenzyl)oxy)-10H-pyrrolizino[1,2-b]quinolin-10-one] | 0.05 to 5 mM | 0.05 to 5 mM | 0.05 to 5 mM | 0.05 to 5 mM | 0.05 to 5 mM | 0.05 to 5 mM | – | – | – | – | – | –
3 | 0.05 to 5 mM | 1 to 10 µM | 1 to 10 µM | – | O=C1c2c(nc3ccccc3c2OCc2ccc(Br)cc2)-c2cccn21 [Compound 594b, 9-((4-bromobenzyl)oxy)-10H-pyrrolizino[1,2-b]quinolin-10-one] | 0.05 to 5 mM | 0.05 to 5 mM | 0.05 to 5 mM | 0.05 to 5 mM | 0.05 to 5 mM | 0.05 to 5 mM | – | – | – | – | – | –
4 | – | 1 to 10 µM | 1 to 10 µM | 0.05 to 5 mM | O=C1c2c(n(CCCCN3CCCCC3)c3ccccc3c2=O)-c2cccn21 [Compound 667a, 4-(4-(Piperidin-1-yl)butyl)-9H-pyrrolizino[1,2-b]quinoline-9,10(4H)-dione] | – | – | – | – | – | – | 0.05 to 5 mM | 0.05 to 5 mM | 0.05 to 5 mM | 0.05 to 5 mM | 0.05 to 5 mM | 0.05 to 5 mM
5 | – | 1 to 10 µM | 10 to 50 µM | 0.05 to 5 mM | Cc1cc2nc3c(c(O)c2cc1C)C(=O)n1cccc1-3 [Compound 756b, 9-hydroxy-6,7-dimethyl-10H-pyrrolizino[1,2-b]quinolin-10-one] | – | – | – | – | – | – | 0.05 to 5 mM | 0.05 to 5 mM | 0.05 to 5 mM | 0.05 to 5 mM | 0.05 to 5 mM | 0.05 to 5 mM
6 | 0.05 to 5 mM | 0.1 to 1 µM | 10 to 50 µM | – | N#Cc1ccc(F)cc1Cn1c2c(c(=O)c3ccccc31)C(=O)n1cccc1-2 [Compound 616a, 2-((9,10-Dioxo-9H-pyrrolizino[1,2-b]quinolin-4(10H)-yl)methyl)-4-fluorobenzonitrile] | 0.05 to 5 mM | 0.05 to 5 mM | 0.05 to 5 mM | 0.05 to 5 mM | 0.05 to 5 mM | 0.05 to 5 mM | – | – | – | – | – | –
7 | – | 1 to 10 µM | 1 to 10 µM | 0.05 to 5 mM | O=C1c2c(nc3ccccc3c2OCCCN2CCNCC2)-c2cccn21 [Compound 669b, 9-(3-(piperazin-1-yl)propoxy)-10H-pyrrolizino[1,2-b]quinolin-10-one] | – | – | – | – | – | – | 0.05 to 5 mM | 0.05 to 5 mM | 0.05 to 5 mM | 0.05 to 5 mM | 0.05 to 5 mM | 0.05 to 5 mM
8 | 0.05 to 5 mM | 1 to 10 µM | 1 to 10 µM | – | O=C(O)c1ccccc1-c1ccc(Cn2c3c(c(=O)c4ccccc42)C(=O)n2cccc2-3)cc1 [Compound 81a, 4′-((9,10-Dioxo-9H-pyrrolizino[1,2-b]quinolin-4(10H)-yl)methyl)-[1,1′-biphenyl]-2-carboxylic acid] | < 0.05 mM | 0.05 to 5 mM | < 0.05 mM | 0.05 to 5 mM | < 0.05 mM | 0.05 to 5 mM | – | – | – | – | – | –
9 | 0.05 to 5 mM | 1 to 10 µM | 1 to 10 µM | – | COc1ccc2c(O)c3c(nc2c1)-c1cccn1C3=O [Compound 560b, 9-hydroxy-6-methoxy-10H-pyrrolizino[1,2-b]quinolin-10-one] | 0.05 to 5 mM | 0.05 to 5 mM | 0.05 to 5 mM | 0.05 to 5 mM | 0.05 to 5 mM | 0.05 to 5 mM | – | – | – | – | – | –
10 | 0.05 to 5 mM | 1 to 10 µM | 1 to 10 µM | – | O=C1c2c([nH]c3c(Cl)cccc3c2=O)-c2cccn21 [Compound 443a, 5-Chloro-9H-pyrrolizino[1,2-b]quinoline-9,10(4H)-dione] | 0.05 to 5 mM | 0.05 to 5 mM | 0.05 to 5 mM | 0.05 to 5 mM | 0.05 to 5 mM | 0.05 to 5 mM | – | – | – | – | – | –
11 | 0.05 to 5 mM | 10 to 50 µM | 1 to 10 µM | – | O=C1c2c(nc3ccccc3c2OCC(F)(F)F)-c2cccn21 [Compound 657b, 9-(2,2,2-trifluoroethoxy)-10H-pyrrolizino[1,2-b]quinolin-10-one] | 0.05 to 5 mM | 0.05 to 5 mM | 0.05 to 5 mM | 0.05 to 5 mM | 0.05 to 5 mM | 0.05 to 5 mM | – | – | – | – | – | –
12 | 0.05 to 5 mM | 0.1 to 1 µM | 1 to 10 µM | – | O=C1c2c(n(Cc3ccc(Br)cc3)c3ccccc3c2=O)-c2cccn21 [Compound 594a, 4-(4-Bromobenzyl)-9H-pyrrolizino[1,2-b]quinoline-9,10(4H)-dione] | < 0.05 mM | 0.05 to 5 mM | 0.05 to 5 mM | 0.05 to 5 mM | 0.05 to 5 mM | 0.05 to 5 mM | – | – | – | – | – | –
13 | 0.05 to 5 mM | 1 to 10 µM | 1 to 10 µM | – | CS(=O)(=O)CCCn1c2c(c(=O)c3ccccc31)C(=O)n1cccc1-2 [Compound 659a, 4-(3-(Methylsulfonyl)propyl)-9H-pyrrolizino[1,2-b]quinoline-9,10(4H)-dione] | 0.05 to 5 mM | 0.05 to 5 mM | 0.05 to 5 mM | 0.05 to 5 mM | 0.05 to 5 mM | 0.05 to 5 mM | – | – | – | – | – | –
14 | 0.05 to 5 mM | 0.1 to 1 µM | 0.1 to 1 µM | – | O=C1c2c([nH]c3cc(O)ccc3c2=O)-c2cccn21 [Compound 524a, 6-Hydroxy-9H-pyrrolizino[1,2-b]quinoline-9,10(4H)-dione] | 0.05 to 5 mM | 0.05 to 5 mM | 0.05 to 5 mM | 0.05 to 5 mM | 0.05 to 5 mM | 0.05 to 5 mM | – | – | – | – | – | –
15 | 0.05 to 5 mM | 1 to 10 µM | 1 to 10 µM | – | O=C1c2c(n(Cc3cc(F)ccc3F)c3ccccc3c2=O)-c2cccn21 [Compound 573a, 4-(2,5-Difluorobenzyl)-9H-pyrrolizino[1,2-b]quinoline-9,10(4H)-dione] | 0.05 to 5 mM | 0.05 to 5 mM | 0.05 to 5 mM | 0.05 to 5 mM | < 0.05 mM | 0.05 to 5 mM | – | – | – | – | – | –
16 | 0.05 to 5 mM | 1 to 10 µM | 1 to 10 µM | – | O=C1c2c([nH]c3ccc(Br)cc3c2=O)-c2cccn21 [Compound 246a, 7-Bromo-9H-pyrrolizino[1,2-b]quinoline-9,10(4H)-dione] | 5 to 20 mM | 0.05 to 5 mM | 0.05 to 5 mM | 0.05 to 5 mM | 0.05 to 5 mM | 0.05 to 5 mM | – | – | – | – | – | –
17 | 0.05 to 5 mM | 10 to 50 µM | 10 to 50 µM | – | O=C1c2c([nH]c3cccc(C(F)(F)F)c3c2=O)-c2cccn21 [Compound 479a, 8-(Trifluoromethyl)-9H-pyrrolizino[1,2-b]quinoline-9,10(4H)-dione] | < 0.05 mM | 0.05 to 5 mM | 0.05 to 5 mM | 0.05 to 5 mM | 0.05 to 5 mM | 0.05 to 5 mM | – | – | – | – | – | –
18 | 0.05 to 5 mM | 1 to 10 µM | 1 to 10 µM | – | O=C1c2c(nc3ccc(Br)cc3c2O)-c2cccn21 [Compound 246b, 7-bromo-9-hydroxy-10H-pyrrolizino[1,2-b]quinolin-10-one] | 0.05 to 5 mM | 0.05 to 5 mM | 0.05 to 5 mM | 0.05 to 5 mM | 0.05 to 5 mM | 0.05 to 5 mM | – | – | – | – | – | –
19 | 0.05 to 5 mM | 1 to 10 µM | 1 to 10 µM | – | N#Cc1ccccc1COc1c2c(nc3ccccc13)-c1cccn1C2=O [Compound 577b, 2-(((10-oxo-10H-pyrrolizino[1,2-b]quinolin-9-yl)oxy)methyl)benzonitrile] | 0.05 to 5 mM | 0.05 to 5 mM | 0.05 to 5 mM | 0.05 to 5 mM | 0.05 to 5 mM | 0.05 to 5 mM | – | – | – | – | – | –
